According to ChEMBL document CHEMBL1201862, “PubChem BioAssay data set” (2004):
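Cultured in 96-well plates, cells were exposed to test compound for 48 hours across five concentrations. GI50 = concentration required for 50% inhibition of growth.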 Calls of active or inactive are those of the source. Cut-off read from the data, not from the text of the source: active = GI50 up to about 1.1 µM and inactive = higher.

Legend:
Experiment in all cases: DTP human tumour cell line panel, 48 h
OVCAR-4 = test system: OVCAR-4
SF-539 = test system: SF-539
SF-268 = test system: SF-268
KM-20L2 = test system: KM-20L2
SN12C = test system: SN12C
K562 = test system: K562
TK-10 = test system: TK-10
KM12 = test system: KM12
SK-MEL-28 = test system: SK-MEL-28
EKVX = test system: EKVX
U-251 = test system: U-251
UACC-257 = test system: UACC-257
HT-29 = test system: HT-29
HCC 2998 = test system: HCC 2998
SW-620 = test system: SW-620
HOP-62 = test system: HOP-62
BT-549 = test system: BT-549
MDA-MB-435 = test system: MDA-MB-435
Hs-578T = test system: Hs-578T
MDA-MB-231 = test system: MDA-MB-231

SMILES	GI50 (OVCAR-4)	GI50 (SF-539)	GI50 (SF-268)	GI50 (KM-20L2)	GI50 (SN12C)	GI50 (K562)	GI50 (TK-10)	GI50 (KM12)	GI50 (SK-MEL-28)	GI50 (EKVX)	GI50 (U-251)	GI50 (UACC-257)	GI50 (HT-29)	GI50 (HCC 2998)	GI50 (SW-620)	GI50 (HOP-62)	GI50 (BT-549)	GI50 (MDA-MB-435)	GI50 (Hs-578T)	GI50 (MDA-MB-231)
COC(=O)c1ccc(Cl)cc1NC(=O)C1CCCCC1	> 100 µM (inactive)	> 100 µM (inactive)	> 100 µM (inactive)	> 100 µM (inactive)	> 100 µM (inactive)	> 100 µM (inactive)	40 µM (inactive)	> 100 µM (inactive)	> 100 µM (inactive)	> 100 µM (inactive)	> 100 µM (inactive)	> 100 µM (inactive)	> 100 µM (inactive)	> 100 µM (inactive)	> 100 µM (inactive)	–	–	–	–	–
C=C1C(C)C2C(Cc3ccccc3)NC(=O)C23OC(=O)/C=C\CC(=O)CCC(C)C/C=C/C3C1O (stereo unspecified)	2.31 µM (inactive)	–	1.66 µM (inactive)	3.66 µM (inactive)	1.93 µM (inactive)	0.757 µM (active)	0.0834 µM (active)	2.88 µM (inactive)	1.39 µM (inactive)	2.48 µM (inactive)	2.54 µM (inactive)	1.36 µM (inactive)	1.54 µM (inactive)	6.19 µM (inactive)	1.36 µM (inactive)	2 µM (inactive)	–	–	–	–
O=C(O)CNS(=O)(=O)c1ccc(NC(=O)c2cccc([N+](=O)[O-])c2)cc1	> 100 µM (inactive)	> 100 µM (inactive)	> 100 µM (inactive)	> 100 µM (inactive)	> 100 µM (inactive)	> 100 µM (inactive)	> 100 µM (inactive)	> 100 µM (inactive)	> 100 µM (inactive)	> 100 µM (inactive)	> 100 µM (inactive)	> 100 µM (inactive)	> 100 µM (inactive)	> 100 µM (inactive)	> 100 µM (inactive)	–	–	–	–	–
Cc1c(C(=O)O)n2cnnc2c2ccccc12	> 100 µM (inactive)	> 100 µM (inactive)	> 100 µM (inactive)	–	> 100 µM (inactive)	> 100 µM (inactive)	> 100 µM (inactive)	> 100 µM (inactive)	> 100 µM (inactive)	> 100 µM (inactive)	> 100 µM (inactive)	> 100 µM (inactive)	> 100 µM (inactive)	> 100 µM (inactive)	> 100 µM (inactive)	> 100 µM (inactive)	> 100 µM (inactive)	> 100 µM (inactive)	> 100 µM (inactive)	> 100 µM (inactive)
O=C1CCC2(c3ccc(Cl)cc3)Nc3cc(Cl)ccc3N12 (stereo unspecified)	10.6 µM (inactive)	2.3 µM (inactive)	12.4 µM (inactive)	15.2 µM (inactive)	15.3 µM (inactive)	2.31 µM (inactive)	–	12 µM (inactive)	12.4 µM (inactive)	15 µM (inactive)	11.7 µM (inactive)	13.6 µM (inactive)	12.4 µM (inactive)	–	6.14 µM (inactive)	15.5 µM (inactive)	–	–	–	–
CC(=O)[C@H]1CC[C@H]2[C@@H]3CCC4=CC(=O)CC[C@]4(C)[C@H]3CC[C@]12C [PROGESTERONE]	18.7 µM (inactive)	17.6 µM (inactive)	23.2 µM (inactive)	–	18.6 µM (inactive)	10.6 µM (inactive)	23.9 µM (inactive)	16.7 µM (inactive)	18.4 µM (inactive)	1.16 µM (inactive)	17.3 µM (inactive)	12.9 µM (inactive)	15 µM (inactive)	16.9 µM (inactive)	31 µM (inactive)	20.6 µM (inactive)	16 µM (inactive)	19.8 µM (inactive)	3.3 µM (inactive)	17.2 µM (inactive)
COc1cc(-c2cn(S(=O)(=O)c3ccc(C)cc3)c3ccccc23)nc(-c2cn(S(=O)(=O)c3ccc(C)cc3)c3ccccc23)n1	1.99 µM (inactive)	0.222 µM (active)	0.755 µM (active)	–	1.85 µM (inactive)	0.373 µM (active)	8.22 µM (inactive)	0.438 µM (active)	23.3 µM (inactive)	0.783 µM (active)	0.354 µM (active)	52.5 µM (inactive)	0.573 µM (active)	0.516 µM (active)	2.9 µM (inactive)	1.84 µM (inactive)	4.85 µM (inactive)	0.18 µM (active)	0.433 µM (active)	0.933 µM (active)
NS(=O)(=O)c1ccc(NC(=O)c2cccc3c(Nc4ccc(S(N)(=O)=O)cc4)c4ccccc4nc23)cc1	22.4 µM (inactive)	20.8 µM (inactive)	15.5 µM (inactive)	67.1 µM (inactive)	31.8 µM (inactive)	11.3 µM (inactive)	> 100 µM (inactive)	4.47 µM (inactive)	> 100 µM (inactive)	> 100 µM (inactive)	21.2 µM (inactive)	32.9 µM (inactive)	14.6 µM (inactive)	–	29.4 µM (inactive)	> 100 µM (inactive)	–	–	–	–
C/C=C1\CN2CCc3c([nH]c4ccccc34)C2C=C1CCO (stereo unspecified)	–	> 340 µM (inactive)	> 340 µM (inactive)	> 340 µM (inactive)	> 340 µM (inactive)	> 340 µM (inactive)	> 340 µM (inactive)	> 340 µM (inactive)	> 340 µM (inactive)	> 340 µM (inactive)	> 340 µM (inactive)	> 340 µM (inactive)	> 340 µM (inactive)	> 340 µM (inactive)	> 340 µM (inactive)	> 340 µM (inactive)	–	–	–	–
C=C1CC(Cn2cc(Br)c(=O)[nH]c2=O)(c2ccc(-c3ccccc3)cc2)OC1=O (stereo unspecified)	2.13 µM (inactive)	1.37 µM (inactive)	2.02 µM (inactive)	–	1.9 µM (inactive)	0.2 µM (active)	0.432 µM (active)	1.52 µM (inactive)	0.221 µM (active)	2.16 µM (inactive)	5.92 µM (inactive)	0.836 µM (active)	0.469 µM (active)	1.66 µM (inactive)	0.341 µM (active)	4.23 µM (inactive)	1.66 µM (inactive)	1.35 µM (inactive)	2.74 µM (inactive)	3.08 µM (inactive)
CC1(C(=O)NCCN(CCNC(=O)C2(C)CC3(C)CC(C)(C2)C(=O)NC3=O)CCNC(=O)C2(C)CC3(C)CC(C)(C2)C(=O)NC3=O)CC2(C)CC(C)(C1)C(=O)NC2=O (stereo unspecified)	> 100 µM (inactive)	> 100 µM (inactive)	–	> 100 µM (inactive)	> 100 µM (inactive)	> 100 µM (inactive)	–	> 100 µM (inactive)	> 100 µM (inactive)	> 100 µM (inactive)	> 100 µM (inactive)	> 100 µM (inactive)	> 100 µM (inactive)	> 100 µM (inactive)	> 100 µM (inactive)	> 100 µM (inactive)	–	–	–	–
Nc1ccc(C(=O)Nc2ccccc2N)cc1 [DINALINE]	20.2 µM (inactive)	30.4 µM (inactive)	31.1 µM (inactive)	–	60 µM (inactive)	14.1 µM (inactive)	6.32 µM (inactive)	44.5 µM (inactive)	24.5 µM (inactive)	66.2 µM (inactive)	17.7 µM (inactive)	17.7 µM (inactive)	25.9 µM (inactive)	17.5 µM (inactive)	19.2 µM (inactive)	18.7 µM (inactive)	67.6 µM (inactive)	20.4 µM (inactive)	22.3 µM (inactive)	30.3 µM (inactive)
COC1OC(COS(=O)(=O)c2ccc(C)cc2)C(O)C(OS(=O)(=O)c2ccc(C)cc2)C1OS(=O)(=O)c1ccc(C)cc1 (stereo unspecified)	> 100 µM (inactive)	> 100 µM (inactive)	> 100 µM (inactive)	> 100 µM (inactive)	> 100 µM (inactive)	> 100 µM (inactive)	–	> 100 µM (inactive)	> 100 µM (inactive)	> 100 µM (inactive)	> 100 µM (inactive)	> 100 µM (inactive)	> 100 µM (inactive)	> 100 µM (inactive)	16 µM (inactive)	> 100 µM (inactive)	–	–	–	–
CC(=O)n1c2ccccc2c2nc3nc(Oc4ccc(C)cc4)c4ccccc4c3cc21	29.4 µM (inactive)	> 100 µM (inactive)	92.3 µM (inactive)	> 100 µM (inactive)	> 100 µM (inactive)	> 100 µM (inactive)	–	> 100 µM (inactive)	> 100 µM (inactive)	> 100 µM (inactive)	41.6 µM (inactive)	> 100 µM (inactive)	> 100 µM (inactive)	> 100 µM (inactive)	> 100 µM (inactive)	57 µM (inactive)	–	–	–	–
Cc1cccc2c(N)c3cccc(C(=O)NCC[N+](C)(C)Cc4c([N+](=O)[O-])ncn4C)c3nc12	> 48.2 µM (inactive)	11.5 µM (inactive)	28.2 µM (inactive)	–	6.93 µM (inactive)	11.1 µM (inactive)	56.2 µM (inactive)	29 µM (inactive)	> 100 µM (inactive)	> 66.1 µM (inactive)	29.9 µM (inactive)	49.9 µM (inactive)	12.7 µM (inactive)	6.73 µM (inactive)	18.9 µM (inactive)	10.4 µM (inactive)	46.1 µM (inactive)	52.6 µM (inactive)	31.2 µM (inactive)	38.5 µM (inactive)
ClCc1nn(-c2ccccc2)c(CCl)c1CCl	2.72 µM (inactive)	2.34 µM (inactive)	3.27 µM (inactive)	–	3.11 µM (inactive)	2.54 µM (inactive)	8.39 µM (inactive)	3.37 µM (inactive)	5.32 µM (inactive)	3.03 µM (inactive)	2.35 µM (inactive)	7.76 µM (inactive)	3.43 µM (inactive)	12.1 µM (inactive)	2.55 µM (inactive)	15.8 µM (inactive)	3.77 µM (inactive)	2.41 µM (inactive)	14.5 µM (inactive)	4.34 µM (inactive)
